The numbers were not newly measured in patent US11590241B2, “Nanoparticle conjugated synthetic opioid prodrugs and methods of their uses” (VIRGINIA COMMONWEALTH UNIVERSITY, priority 2016, dated 2023), which cites them from elsewhere.

For data set [1] the following is noted: extensive hepatic first-pass metabolism.
The subject of a further data set is morphine-pelleted mice. The settings on record: U.S. Pat. No. 8,980,908.
The subject of a further data set is mice. Particulars: parent compound, earlier data.
Data set [2] has as its target T1, MOR (Homo sapiens, UniProt P35372).
T1 construct: expressed in transfected cells; host or cells: CHO (Chinese hamster ovary) cells, membrane preparation
The settings on record: read-out: Ki (nM) μ; [3H]naloxone; data from Li et al. 2009.

The target in data set [3] is T1, MOR. Particulars: data from Li et al. 2009.

T1 sequence (P35372 whole entry): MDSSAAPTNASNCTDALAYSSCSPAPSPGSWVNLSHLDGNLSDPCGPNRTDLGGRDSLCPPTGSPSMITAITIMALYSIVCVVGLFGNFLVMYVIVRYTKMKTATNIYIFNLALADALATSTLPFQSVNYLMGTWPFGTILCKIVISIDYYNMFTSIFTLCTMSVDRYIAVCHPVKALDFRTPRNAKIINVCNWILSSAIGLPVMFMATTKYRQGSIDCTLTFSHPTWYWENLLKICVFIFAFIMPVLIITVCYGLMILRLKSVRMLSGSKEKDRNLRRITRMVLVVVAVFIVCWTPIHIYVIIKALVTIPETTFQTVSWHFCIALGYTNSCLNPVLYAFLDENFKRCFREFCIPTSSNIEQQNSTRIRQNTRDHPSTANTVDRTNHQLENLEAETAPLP

Consider `C=CCN1CC[C@]23c4c5ccc(O)c4O[C@H]2C(=O)CC[C@@]3(O)[C@H]1C5` [Naloxone], for which the oral bioavailability in data set [1] is around 2%.
As for `O=C(Cc1ccncc1)N[C@@H]1CC[C@@]2(O)[C@H]3Cc4ccc(O)c5c4[C@@]2(CCN3CC2CC2)[C@H]1O5` [NAP, 17-cyclopropylmethyl-3,14 β-dihydroxy-4,5 α-epoxy-6 β-[(4-pyridyl)acetamido]morphinan], in the data set on morphine-pelleted mice, the intestinal motility entry is “increase intestinal motility”. For the same compound, in the data set on mice, the “AD50, blocking the antinociceptive effect of morphine” value was 4.98 mg/kg and the “agonist activity (antinociception)” value was “did not carry any significant agonist activity”. Moreover, the inhibition constant (Ki) on MOR [2] was 0.37 ± 0.07 nM. For the same compound, the “MOR [35S]GTPγS Binding % Emax of DAMGO” value at MOR [3] is 22.7 ± 0.8%. Also, the EC50 on MOR [3] (read-out: MOR [35S]GTPγS Binding EC50) was 1140 ± 380 pM.
